Experimental findings from patent publication US12589104B2, “Thiosaccharides for use in treating coronavirus infection” (priority 2020, dated 2026) are described below.

The test has as its target SARS-CoV-2 RBD^N501Y binding to ACE2 (Severe acute respiratory syndrome coronavirus 2, UniProt P0DTC2, N501Y).

Take `NCCS` [Cysteamine]: the “inhibition of binding of RBD^N501Y to ACE2” value is recorded as “potently inhibited”.
